This test has as its target human PCSK9 / human LDLR EGFa domain interaction (Homo sapiens, UniProt Q8NBP7). The test is described as follows: TR-FRET assay of inhibition of the PCSK9-LDLR protein-protein interaction. The class given is binding. As to conditions: 20 nM biotinylated human PCSK9 + 20 nM his-tagged human LDLR EGFa domain, 2 hours room temperature. How it is done: A time-resolved fluorescence resonance energy (TR-FRET) assay was used to measure inhibition of the PCSK9-LDLR protein-protein interaction. Briefly, 20 nM avitag-biotinylated human PCSK9 was incubated with 20 nM his-tagged human LDLR EGFa domain in the presence of 5 nM LANCE Ulight Streptavidin (Perkin Elmer) and 5 nM europium-Anti-6×His (Perkin Elmer) for 2 hours covered at room temperature in buffer containing 50 mM HEPES, 150 mM NaCl, 5 mM CaCl2, 0.01% BSA and 0.01% Surfactant P20. Compounds were tested in dose-response and concentrations giving half-maximal inhibition calculated using a 4-parameter fit equation.
(In TR-FRET formats the signal depends on donor and acceptor labels being close together.)

The results in this text go back to patent publication US11505575B2, “Cyclic polypeptides for PCSK9 inhibition” (Merck Sharp & Dohme LLC, priority 2018, dated 2022).

pIC50: −log10 of the molar value. *1 amine or outer side, *2 acyl side, *3 side chain or, on linkers, in order; H or OH if unused. Where a SMILES comes first, the peptide text is derived from it. Bridges are numbered along the chain shown (N, C = ends). [ ]: non-standard residue; d: D form. The star is where a group is joined. Pro(3R,4S-CMe2) = CC1(C)[C@@H]2[C@@H](C(=O)O)NC[C@@H]21; Phe(4-guanidino) = N=C(N)Nc1ccc(C[C@H](N)C(=O)O)cc1; Pro(trans-4-Ph) = O=C(O)[C@@H]1C[C@@H](c2ccccc2)CN1; Trp(7-aza) = N[C@@H](Cc1c[nH]c2ncccc12)C(=O)O; Phe(4-CH2NH2) = NCc1ccc(C[C@H](N)C(=O)O)cc1; Pro(4S-NH2) = N[C@@H]1CN[C@H](C(=O)O)C1; Pro(4,4-F2) = O=C(O)[C@@H]1CC(F)(F)CN1; mXylylene = c1cc(C[*:1])cc(C[*:2])c1; Val(3-OH) = CC(C)(O)[C@H](N)C(=O)O; Myristoyl = CCCCCCCCCCCCCC(=O)*; Aad = N[C@@H](CCCC(=O)O)C(=O)O; Chg = N[C@H](C(=O)O)C1CCCCC1; Tle = CC(C)(C)[C@H](N)C(=O)O; NMeA = CN[C@@H](C)C(=O)O; Nva = CCC[C@H](N)C(=O)O; Mpa = O=C(O)CCS; Sar = CNCC(=O)O

Sequence of human PCSK9 / human LDLR EGFa domain interaction (Q8NBP7 153-692): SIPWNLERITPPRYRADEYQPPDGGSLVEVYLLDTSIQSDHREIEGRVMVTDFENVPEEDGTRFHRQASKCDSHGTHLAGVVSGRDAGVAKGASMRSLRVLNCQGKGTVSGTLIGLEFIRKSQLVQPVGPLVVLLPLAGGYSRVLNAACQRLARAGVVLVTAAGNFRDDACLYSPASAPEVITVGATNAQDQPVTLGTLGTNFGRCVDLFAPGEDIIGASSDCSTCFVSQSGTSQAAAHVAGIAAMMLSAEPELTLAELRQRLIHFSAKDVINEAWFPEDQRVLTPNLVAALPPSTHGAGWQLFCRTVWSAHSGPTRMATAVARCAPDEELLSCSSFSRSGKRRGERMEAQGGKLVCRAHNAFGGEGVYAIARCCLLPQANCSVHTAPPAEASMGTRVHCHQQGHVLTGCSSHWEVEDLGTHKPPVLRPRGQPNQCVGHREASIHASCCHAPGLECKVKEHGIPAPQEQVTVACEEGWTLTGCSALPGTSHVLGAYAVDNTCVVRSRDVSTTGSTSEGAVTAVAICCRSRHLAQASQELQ
Sequence of human PCSK9 / human LDLR EGFa domain interaction (Q8NBP7 31-152 partner limits assumed): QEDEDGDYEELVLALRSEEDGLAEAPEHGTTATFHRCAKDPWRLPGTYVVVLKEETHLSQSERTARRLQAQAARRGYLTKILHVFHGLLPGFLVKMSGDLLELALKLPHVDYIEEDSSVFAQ

For the compound `CCC[C@H](NC(C)=O)C(=O)N[C@H]1CSCc2cccc(c2)CSC[C@@H](C(N)=O)NC(=O)[C@H]([C@@H](C)O)NC(=O)[C@H](C2CCCCC2)NC(=O)[C@H](Cc2c[nH]c3ncccc23)NC(=O)[C@H](Cc2cnc[nH]2)NC(=O)[C@H](CCC(=O)O)NC(=O)[C@H](Cc2c[nH]c3ncccc23)NC(=O)[C@H]([C@@H](C)O)NC(=O)[C@H]2CCCN2C(=O)[C@H](Cc2ccc(O)cc2)NC(=O)[C@H](C(C)(C)C)NC1=O` [Compound 001] (Ac-[Nva]C[Tle]Y[dP]T[Trp(7-aza)]EH[Trp(7-aza)][Chg]TC-NH2; linker 2-13 via mXylylene), the negative-log IC50 (pIC50) was 4.92 to 6.00.
On to `CCCCCCCCCCCCCC(=O)NCCCC[C@H](NC(C)=O)C(=O)N[C@@H](CCC)C(=O)N[C@H]1CSCc2cccc(c2)CSC[C@@H](C(N)=O)NC(=O)[C@H]([C@@H](C)O)NC(=O)[C@H](C2CCCCC2)NC(=O)[C@H](Cc2c[nH]c3ncccc23)NC(=O)[C@H](Cc2c[nH]cn2)NC(=O)[C@H](CCC(=O)O)NC(=O)[C@H](Cc2c[nH]c3ncccc23)NC(=O)[C@H]([C@@H](C)O)NC(=O)[C@@H]2CCCN2C(=O)[C@H](Cc2ccc(O)cc2)NC(=O)[C@H](C(C)(C)C)NC1=O` [Compound 003] (Ac-K(Myristoyl)[Nva]C[Tle]YPT[Trp(7-aza)]EH[Trp(7-aza)][Chg]TC-NH2; linker 3-14 via mXylylene), for which the pIC50 was 7.00 to 9.00.
With `CCC[C@@H]1NC(=O)[C@H](Cc2c[nH]c3ncccc23)NC(=O)[C@H]([C@@H](C)O)NC(=O)[C@@H]2CC(F)(F)CN2C(=O)[C@H](Cc2ccc(O)cc2)NC(=O)[C@H](C(C)(C)C)NC(=O)CCSCc2cccc(c2)CSC[C@@H](C(N)=O)NC(=O)[C@H]([C@@H](C)O)NC(=O)[C@H](CCC)NC(=O)[C@H](Cc2ccc(O)cc2)NC(=O)[C@H](CCC(=O)O)NC1=O` [Compound 004] ([Mpa][Tle]Y[Pro(4,4-F2)]T[Trp(7-aza)][Nva]EY[Nva]TC-NH2; linker 1-12 via mXylylene), the pIC50 was 4.92 to 6.00.
`CCC[C@@H]1NC(=O)[C@H](Cc2c[nH]c3ncccc23)NC(=O)[C@H]([C@@H](C)O)NC(=O)[C@@H]2C[C@@H](c3ccccc3)CN2C(=O)[C@H](Cc2ccc(O)cc2)NC(=O)[C@H](C(C)(C)C)NC(=O)CCSCc2cccc(c2)CSC[C@@H](C(N)=O)NC(=O)[C@H]([C@@H](C)O)NC(=O)[C@H](CCC)NC(=O)[C@H](Cc2ccc(O)cc2)NC(=O)[C@H](CCC(=O)O)NC1=O` [Compound 005] ([Mpa][Tle]Y[Pro(trans-4-Ph)]T[Trp(7-aza)][Nva]EY[Nva]TC-NH2; linker 1-12 via mXylylene): the negative-log IC50 (pIC50) is 4.92 to 6.00.
As for `CCC[C@H](NC(C)=O)C(=O)N[C@H]1CSCc2cccc(c2)CSC[C@@H](C(N)=O)NC(=O)[C@H]([C@@H](C)O)NC(=O)[C@H](C2CCCCC2)NC(=O)[C@H](Cc2c[nH]c3ncccc23)NC(=O)[C@H](Cc2cnc[nH]2)NC(=O)[C@H](CCC(=O)O)NC(=O)[C@H](Cc2c[nH]c3ncccc23)NC(=O)[C@H]([C@@H](C)O)NC(=O)[C@H](C)N(C)C(=O)[C@H](Cc2ccc(O)cc2)NC(=O)[C@H](C(C)(C)C)NC1=O` [Compound 006] (Ac-[Nva]C[Tle]Y[NMeA]T[Trp(7-aza)]EH[Trp(7-aza)][Chg]TC-NH2; linker 2-13 via mXylylene), the pIC50 was 4.92 to 6.00.
As to `CCC[C@H](NC(C)=O)C(=O)N[C@H]1CSCc2cccc(c2)CSC[C@@H](C(N)=O)NC(=O)[C@H]([C@@H](C)O)NC(=O)[C@H](C2CCCCC2)NC(=O)[C@H](Cc2c[nH]c3ncccc23)NC(=O)[C@H](Cc2c[nH]cn2)NC(=O)[C@H](CCC(=O)O)NC(=O)[C@H](Cc2c[nH]c3ncccc23)NC(=O)[C@H]([C@@H](C)O)NC(=O)CN(C)C(=O)[C@H](Cc2ccc(O)cc2)NC(=O)[C@H](C(C)(C)C)NC1=O` [Compound 007] (Ac-[Nva]C[Tle]Y[Sar]T[Trp(7-aza)]EH[Trp(7-aza)][Chg]TC-NH2; linker 2-13 via mXylylene), the pIC50 was 4.92 to 6.00.
Regarding `CCC[C@@H]1NC(=O)[C@H](Cc2c[nH]c3ncccc23)NC(=O)[C@H]([C@@H](C)O)NC(=O)[C@@H]2[C@@H]3[C@H](CN2C(=O)[C@H](Cc2ccc(O)cc2)NC(=O)[C@H](C(C)(C)C)NC(=O)CCSCc2cccc(c2)CSC[C@@H](C(N)=O)NC(=O)[C@H]([C@@H](C)O)NC(=O)[C@H](CCC)NC(=O)[C@H](Cc2ccc(O)cc2)NC(=O)[C@H](CCC(=O)O)NC1=O)C3(C)C` [Compound 008] ([Mpa][Tle]Y[Pro(3R,4S-CMe2)]T[Trp(7-aza)][Nva]EY[Nva]TC-NH2; linker 1-12 via mXylylene), the negative logarithm of the IC50 (pIC50) was 6.00 to 7.00.
As for `CCC[C@@H]1NC(=O)[C@H](Cc2c[nH]c3ncccc23)NC(=O)[C@H]([C@@H](C)O)NC(=O)[C@@H]2C[C@H](N)CN2C(=O)[C@H](Cc2ccc(O)cc2)NC(=O)[C@H](C(C)(C)C)NC(=O)CCSCc2cccc(c2)CSC[C@@H](C(N)=O)NC(=O)[C@H]([C@@H](C)O)NC(=O)[C@H](C2CCCCC2)NC(=O)[C@H](Cc2ccc(O)cc2)NC(=O)[C@H](CCCC(=O)O)NC1=O` [Compound 010] ([Mpa][Tle]Y[Pro(4S-NH2)]T[Trp(7-aza)][Nva][Aad]Y[Chg]TC-NH2; linker 1-12 via mXylylene), the pIC50 is 6.00 to 7.00.
With `CCC[C@@H]1NC(=O)[C@H](Cc2c[nH]c3ncccc23)NC(=O)[C@H]([C@@H](C)O)NC(=O)[C@H](Cc2cnc[nH]2)NC(=O)[C@H](Cc2ccc(O)cc2)NC(=O)[C@H](C(C)(C)C)NC(=O)[C@@H](NC(C)=O)CCC(=O)NCc2ccc(cc2)C[C@@H](C(N)=O)NC(=O)[C@H]([C@@H](C)O)NC(=O)[C@H](CCC)NC(=O)[C@H](Cc2ccc(O)cc2)NC(=O)[C@H](CCC(=O)O)NC1=O` [Compound 013] (Ac-E[Tle]YHT[Trp(7-aza)][Nva]EY[Nva]T[Phe(4-CH2NH2)]-NH2; lactam 1-12), the pIC50 is 6.00 to 7.00.
Consider `CCC[C@@H]1NC(=O)[C@H](Cc2c[nH]c3ncccc23)NC(=O)[C@H]([C@@H](C)O)NC(=O)[C@H](Cc2cnc[nH]2)NC(=O)[C@H](Cc2ccc(O)cc2)NC(=O)[C@H](C(C)(C)C)NC(=O)CCSCc2cccc(c2)CSC[C@H](C(N)=O)NC(=O)[C@H]([C@@H](C)O)NC(=O)[C@H](C2CCCCC2)NC(=O)[C@H](Cc2ccc(O)cc2)NC(=O)[C@H](CCC(=O)O)NC1=O` [Compound 043] ([Mpa][Tle]YHT[Trp(7-aza)][Nva]EY[Chg]T[dC]-NH2; linker 1-12 via mXylylene), for which the pIC50 was 6.00 to 7.00.
As for `CCC[C@@H]1NC(=O)[C@H](Cc2c[nH]c3ncccc23)NC(=O)[C@H]([C@@H](C)O)NC(=O)[C@H](Cc2cnc[nH]2)NC(=O)[C@H](Cc2ccc(O)cc2)NC(=O)[C@H](C(C)(C)C)NC(=O)CCSCc2cccc(c2)CSC[C@H](C(N)=O)NC(=O)[C@H](C(C)(C)O)NC(=O)[C@H](CCC)NC(=O)[C@H](Cc2ccc(O)cc2)NC(=O)[C@H](CCC(=O)O)NC1=O` [Compound 044] ([Mpa][Tle]YHT[Trp(7-aza)][Nva]EY[Nva][Val(3-OH)][dC]-NH2; linker 1-12 via mXylylene), the pIC50 is 6.00 to 7.00.
As to `CCC[C@@H]1NC(=O)[C@H](Cc2c[nH]c3ncccc23)NC(=O)[C@H]([C@@H](C)O)NC(=O)[C@H](CCCCN)NC(=O)[C@H](Cc2ccc(O)cc2)NC(=O)[C@H](C(C)(C)C)NC(=O)CCSCc2cccc(c2)CSC[C@@H](C(N)=O)NC(=O)[C@H]([C@@H](C)O)NC(=O)[C@H](C2CCCCC2)NC(=O)[C@H](Cc2ccc(O)cc2)NC(=O)[C@H](CCC(=O)O)NC1=O` [Compound 046] ([Mpa][Tle]YKT[Trp(7-aza)][Nva]EY[Chg]TC-NH2; linker 1-12 via mXylylene), the negative-log IC50 (pIC50) was 6.00 to 7.00.
For `CCC[C@@H]1NC(=O)[C@H](Cc2c[nH]c3ncccc23)NC(=O)[C@H]([C@@H](C)O)NC(=O)[C@H](CCC(=O)O)NC(=O)[C@H](Cc2ccc(O)cc2)NC(=O)[C@H](C(C)(C)C)NC(=O)CCSCc2cccc(c2)CSC[C@@H](C(N)=O)NC(=O)[C@H]([C@@H](C)O)NC(=O)[C@H](C2CCCCC2)NC(=O)[C@H](Cc2ccc(O)cc2)NC(=O)[C@H](CCCCN)NC1=O` [Compound 047] ([Mpa][Tle]YET[Trp(7-aza)][Nva]KY[Chg]TC-NH2; linker 1-12 via mXylylene) the value was 6.00 to 7.00; for `CCC[C@H](NC(=O)[C@H](Cc1c[nH]c2ncccc12)NC(=O)[C@H](NC(C)=O)[C@@H](C)O)C(=O)NC1CCC(=O)NCCCCCNC(=O)[C@H](Cc2ccc(O)cc2)NC(=O)[C@H](C(C)(C)C)NC(=O)CCSCc2cccc(c2)CSC[C@H](C(N)=O)NC(=O)[C@H]([C@@H](C)O)NC(=O)[C@H](C2CCCCC2)NC(=O)[C@H](Cc2ccc(O)cc2)NC1=O` (stereo partly shown) [Compound 049], 4.92 to 6.00; for `CCC[C@@H]1NC(=O)[C@H](Cc2c[nH]c3ncccc23)NC(=O)[C@H]([C@@H](C)O)NC(=O)[C@H](Cc2cnc[nH]2)NC(=O)[C@H](Cc2ccc(O)cc2)NC(=O)[C@H](C(C)(C)C)NC(=O)[C@@H](NC(=O)[C@H](CCCNC(=N)N)NC(C)=O)CSCc2cccc(c2)CSC[C@@H](C(N)=O)NC(=O)[C@H]([C@@H](C)O)NC(=O)[C@H](CCC)NC(=O)[C@H](Cc2ccc(O)cc2)NC(=O)[C@H](CCC(=O)O)NC1=O` [Compound 050] (Ac-RC[Tle]YHT[Trp(7-aza)][Nva]EY[Nva]TC-NH2; linker 2-13 via mXylylene), 6.00 to 7.00.
For `CCC[C@@H]1NC(=O)[C@H](Cc2ccc(NC(=N)N)cc2)NC(=O)[C@H]([C@@H](C)O)NC(=O)[C@H](Cc2cnc[nH]2)NC(=O)[C@H](Cc2ccc(O)cc2)NC(=O)[C@H](C(C)(C)C)NC(=O)CCSCc2cccc(c2)CSC[C@@H](C(N)=O)NC(=O)[C@H]([C@@H](C)O)NC(=O)[C@H](CCC)NC(=O)[C@H](Cc2ccc(O)cc2)NC(=O)[C@H](CCC(=O)O)NC1=O` [Compound 055] ([Mpa][Tle]YHT[Phe(4-guanidino)][Nva]EY[Nva]TC-NH2; linker 1-12 via mXylylene) the value was 4.92 to 6.00.

As usually defined, the pIC50 is the IC50 on a negative log10 scale, so that one unit is a factor of ten.
